Results reported in patent US5264423A, “Inhibitors for replication of retroviruses and for the expression of oncogene products” (The United States of America as represented by the …, priority 1992, dated 1993).
Entries after “also recorded” stand apart in the source; their conditions may differ.

Tests used:
[1] = system: HIV (HTLV-IIIB) in ATH8 cells; test: HIV cytopathic effect inhibition (viable ATH8 cells, trypan blue); settings: for protection of target cells, single agent: each agent alone (2 micromoles dideoxyadenosine; 5 micromoles S-dC14), 1000 virions per cell, day 13; for anti-HIV activity (cytopathic effect): in words
Description: FIGS. 1A-1D and Table 1, The target cells (2×10^5 ATH8 cells) in each tube were pretreated with the stated concentration of each oligomer for 16 hours and then incubated with Polybrene for 45 minutes. After centrifugation, each set of pelleted cells was exposed to HIV (500 virions per cell, which is a much higher dose than the minimal cytopathic dose) and incubated for one hour. Complete media (2 ml RPMI1640) supplemented with L-glutamine (4 mti), 2-mercaptoethanol ([…]), penicillin (50 unit/ml), and streptomycin (50 micrograms/ml), and containing 15% fetal calf serum and IL-2 (15% of conventional IL-2 from Advanced Biotechnologies, Inc., Silver Spring, MD, plus 20 unit/ml of recombinant IL-2 from Amgen Biochemicals, Thousand Oaks, CA) with the various concentrations of oligomers added. The number of viable cells were counted in a hemocytometer using the trypan blue exclusion method for day 7 following exposure to the virus. Filled columns represent non-virus exposed cells, and dotted columns represent virus exposed cells.
The HIV cytopathic effect inhibition with oligodeoxynucleotides was performed with 18 hours of pretreatment of 2×10^5 target cells (ATH8 cells) with oligos prior to exposure to HTLV-IIIB. After this pretreatment, target cells were treated with Polybrene (2 micrograms/ml) for one hour. The target cells were then, respectively, exposed to HTLV-IIIB virus (generally 500 virions per cell in this series of experiments) for one hour. The 2×10^5 cells were then diluted to 2 ml with complete media containing IL-2 and various concentrations of oligos.
The number of viable cells was counted in a hemocytometer using the trypan blue exclusion method on day 7 following exposure to the virus. Each set of data were obtained from simultaneously performed experiments so as to make a precise comparison among agents tested.
The target cells (2×10^5 ATH8 cells per tube) were preincubated with the stated concentrations of S-dC14 for 24 hours and pretreated with 2 micrograms/ml of Polybrene for 45 minutes. After centrifugation, pelleted cells were exposed to the HIV (1000 virions per cell) for one hour. The cells were incubated in 2 ml of complete media containing IL-2, and the viable cells were counted on day 13.
On day 13 after the exposure to the virus, viable cells were counted by the trypan blue dye exclusion method.

[2] = system: de novo HIV DNA synthesis in ATH8 cells; test: Southern blot of de novo HIV DNA synthesis; format: cell-based; settings: positive control, 50 micromoles (lanes E and J)
Source text: Target cells (1×10^7 ATH8 cells) were pretreated with or without S-dC28 at various concentrations for sixteen hours, then treated with Polynrene, exposed to HIV (500 virus particles per cell), resuspended, and cultured in the presence or absence of S-dC28. On days 4 and 7 following the exposure to the virus, high molecular weight DNA was extracted, digested with Asp718 (a Kpn I isoschizomer from Boehringer-tiannheim, Indianapolis, IN), and subjected to Southern blot analysis hybridized with a labelled insert of molecular clone of the env region of HTLV-III (BH10) containing a 1.3 Kb Bgl II fragment.
FIGS. 6A-6D show the inhibitor effect of the phosphorothioate oligodeoxycytidine analog (S-dC28) on de novo HIV DNA synthesis in target cells. On days 4 and 7 following the exposure to the virus, a substantial amount of viral DNA was detected by Southern blot analysis without antiviral agents.
On day 4, shown in lanes A-E, and day 7, shown in lanes F-J, following exposure to the virus, high molecular weight DNA was extracted. Lanes A and F contain DNA from ATH8 cells that were exposed to the virus and not protected by S-dC28. Lanes B and G, C and H, D and I, contain DNA from ATH8 cells pretreated and cultured with 1 micromole, 5 micromoles, and 7 micromoles S-dC28, respectively. Lanes E and J contain DNA from ATH8 cells treated with 50 micromoles 2', 3'-dideoxyadenonsine, and lane K contains DNA from ATH8 cells that was not exposed to the virus.

ATH8 cells = test: Cytotoxicity of ODNs (Table 2); format: cell-based
Source text: Since phosphorothioate ODNs which are not anti-sense sequences appear to be very effective antiviral agents, an attempt was made to clarify the nature of the base composition effect.

[3] = Stability in in vitro test media followed by 31P NMR; format: in vitro ADME
Source text: The phosphorothioate oligodeoxynucleotides of the present invention have suitable chemical characteristics, namely, the ability to hybridize with complementary DNA/MRNA under physiological conditions, and better solubility properties relative to methylphosphonates. Moreover, the thioesters are as soluble in biological media as the parent compounds.
Thus, it is believed that it is mainly the relative resistance of the phosphorothioate analogs to nucleases that preserves them relative to n-ODNs, and allows them to reach and remain at their target site. This was supported in relation to the media used in the in vitro test system by following the 31P NMR spectra of the n-ODN-1 and S-ODN-1 compounds as a function of time.

exo- and endonuclease P1 = test: Nuclease susceptibility, P1 nuclease; format: in vitro ADME
Source text: (§1) Several oligodeoxynucleotides were studied with regard to DNase sensitivity, cf. Table 5. These include cytidine homopolymers, ODN-4 (an anti-message 28-mer complementary to the 3' region of the art/trs region of HIV BH10 clone), and myc-1 (a 15-mer complementary to the initiation codon region of the C-myc oncogene). The DNases employed were predominantly endonuclease S1, the exo- and endonuclease P1, and snake venom (SV) phosphodiesterase. The concentration of S1 nuclease was ten-fold higher (100 micromoles/ml) for reactions of oligo-dc, since both the normal and PS analog were degraded extremely slowly be this enzyme. S1 and P1 nuclease digestion proceeded at 2-45 times more slowly for the S-ODNs than for the normal oligomers, with the […] being somewhat more readily digested than the 28-mer.

Stability in human serum = format: in vitro ADME; settings: 31P NMR
[4] = system: snake venom (SV) phosphodiesterase; test: Nuclease susceptibility, snake venom phosphodiesterase; format: in vitro ADME
Source text: as §1

endonuclease S1 = test: Nuclease susceptibility, S1 nuclease; format: in vitro ADME
Source text: as §1

HL60 cells = test: HL60 cell growth (cell count); format: cell-based; settings: in words
gamma-interferon = test: Induction of gamma-interferon in culture supernatant; format: cell-based; settings: supernatant of the culture
Source text: Another mechanism which should be considered is induction of interferon production such as that proposed for phosphorothioate analogs of poly-r(I-C). […] Also, since there are no data to support the concept that phosphorothioate internucleotide linkages have a thiol character, and can thus form disulfides, the mechanism of action would likely be different from that proposed for antiviral polynucleotides having thiolated bases such as 5-mercapto-cytosine or -uracil.

Molecule	ANTI-VIRAL EFFECT (%) ([1]; 1 uM)	ANTI-VIRAL EFFECT (%) ([1]; 5 uM)	ANTI-VIRAL EFFECT (%) ([1]; 10 uM)	ANTI-VIRAL EFFECT (%) ([1]; 25 uM)	anti-HIV activity (cytopathic effect) [1]	CYTOTOXICITY (%) (ATH8 cells; 1 uM)	CYTOTOXICITY (%) (ATH8 cells; 5 uM)	CYTOTOXICITY (%) (ATH8 cells; 10 uM)	CYTOTOXICITY (%) (ATH8 cells; 25 uM)	further results
Nc1ncnc2c1ncn2[C@H]1CC[C@@H](CO)O1 [2', 3'-dideoxyadenosine, reference compound]	–	–	–	–	–	–	–	–	–	protection of target cells, single agent [1]: only marginal protective effects; inhibition of de novo synthesis of viral DNA [2]: significantly inhibited the de novo synthesis of viral DNA; inhibition of de novo synthesis of viral DNA ([2]; listed as 2', 3'-dideoxyadenonsine): detected only in lanes A and F
d-(Gs Gs As Gs As Cs As Gs Cs Gs As Cs Gs A) [S-ODN-2]	11	56	100	78	protected against HIV	0	0	0	6	–
d-(Ts Cs Gs Ts Cs Gs Cs Ts Gs Ts Cs Ts Cs C) [S-ODN-1]	0	43	72	95	substantial activity against HIV; also recorded: protected against HIV	0	0	0	20	phosphorothioate bonds after 10 days ([3]; 10 days): still intact after 10 days; decomposition based on the total signal intensity ([3]; after 10 days): less than 5%; degradation / half-life in media used in the in vitro test system ([3]; up to a week): no significant degradation even after a week
recombinant gamma-interferon: recombinant alpha- or gamma-interferon	–	–	–	–	–	–	–	–	–	inhibition of the cytopathic effect ([1]; 1000 units added directly to the cultures): did not inhibit the cytopathic effect
dAACGTTGAGGGGCAT [O-myc-1, reference compound]	–	–	–	–	–	–	–	–	–	Nuclease susceptibility, t1/2 (exo- and endonuclease P1): 69 s; half-life in 50% human serum (Stability in human serum): two to three days; Nuclease susceptibility, t1/2 [4]: 28 s; Nuclease susceptibility, t1/2 (endonuclease S1): 36 s
5'-CTG AAG TGG CAT GAG (CTGAAGTGGCATGAG; all phosphorothioate, sugars by position and methylation of C not given here) [non-sense sequence, reference compound]	–	–	–	–	–	–	–	–	–	effect on HL60 cell proliferation (HL60 cells): none of the controls used, namely, the non-sense sequence, has shown similar activity; effect on HL60 cell proliferation (HL60 cells; listed as nonsense S-ODN): not all nonsense S-ODN concentrations affected cell proliferation
dTCGTCGCTGTCTCCGCTTCTTCCTGCCA [O-ODN-4, reference compound]	–	–	–	–	–	–	–	–	–	Nuclease susceptibility, t1/2 (exo- and endonuclease P1): 72 s; Nuclease susceptibility, t1/2 [4]: 20 s
Nc1ccn([C@H]2CC[C@@H](CO)O2)c(=O)n1 [2', 3'-dideoxycytidine, reference compound]	–	–	–	–	–	–	–	–	–	protection against the virus / antiviral activity ([1]; 0.5 micromoles): complete antiviral activity
d-(Cs As Ts As Gs Gs As Gs As Ts Gs Cs Cs T) [S-ODN-3]	0	6	44	94	–	0	0	0	13	–
(dC)n n = 14 [S-dC14]	25	100	100	100	most potent antiviral compound among those tested in this series of experiments	0	0	0	0	protection against the virus ([1]; 5 micromoles (65 micromole equivalents), FIGS. 6B-6D): only a moderate effect; protection of target cells, single agent [1]: only marginal protective effects; anti-HIV activity (cytopathic effect) ([1]; listed as 14-mer oligo-dc): substantial protection against HIV cytopathic effect; induction of gamma-interferon (gamma-interferon): No induction of gamma-interferon
